Assays:
[1] = tested on: osteoarthritic rats (MIA-induced osteoarthritis pain); experiment: Monoiodoacetate-induced osteoarthritis (MIA-OA) pain model, hind limb grip force; assay type: in vivo, Sprague-Dawley rats; conditions: for percent return of grip force to normalcy: n=6
Protocol: Pain behavior was assessed by measurement of hind limb grip force (GF) in adult osteoarthritic rats. Unilateral knee joint osteoarthritis was induced in rats by a single intraarticular (i.a.) injection of sodium monoiodoacetate (MIA) (Sigma, St. Louis, Mo.) (3 mg in 0.05 ml sterile isotonic saline) into the joint cavity using a 26 G needle under light (2-4%) isoflurane anesthesia, as previously described ([…]., Honore, P., 2009, Pharmacological modulation of movement-evoked pain in a rat model, Eur. J. […] Following injection, the animals were allowed to recover from the effects of anesthesia (usually 5-10 minutes) before returning them to their home cages. Grip strength was assessed in osteoarthritic rats as a measure of activity-induced pain. Measurements of peak hind limb grip force were conducted by recording the maximum compressive force (CFmax), in grams of force, exerted on the hind limb strain gauge, in a commercially available grip force measurement system (Columbus Instruments, Columbus, Ohio). During testing, each rat was gently restrained and allowed to grasp the wire mesh frame (10×12 cm) attached to the strain gauge. The animal was then moved in a rostral-to-caudal direction until the grip was broken. Each rat was sequentially tested twice at an approximately two-three minute interval to obtain a raw mean grip force (CFmax in gram force units). In order to account for the body weight differences among the rats, this raw mean grip force was converted to a maximum hind limb compressive force for each animal by dividing the CFmax by the body weight of the rat in kg [(CFmax in gram force)/kg body weight]. […] Compound A was administered in 10% DMSO/HBC vehicle orally at a volume of 2 ml/kg, 60 minutes before testing. The NSAID diclofenac (30 mg/kg, p.o.) was given 60 minutes before data collection and used as a positive control. A group of age-matched naïve (not injected with MIA) animals was added as a comparator to the drug-dosed groups. The vehicle control response for each group of MIA-treated animals was defined as the 0% response (0% effect), whereas the naïve control group was defined as the normal response and as 100% effect. The % effects for each dose group was expressed as % return of response to normalcy, compared to the naïve group. That is, the % effect=(Treatment CFmax-Vehicle CFmax)[…]]×100). Higher % effect numbers indicate increased relief from the pain in the model, with 100% indicating a return to the level of response seen in normal (non-osteoarthritic) animals. The data obtained from various dose groups for the test compound were compared with data from the naïve group.

[2] = tested on: CCI rats (sciatic nerve-induced neuropathic pain); conditions: single dose p.o.; at less than about 100 micromoles/kg, for example less than about 30 micromoles/kg
Source text: Food and water were available ad libitum at all times except during testing. […]
The von Frey filaments were presented perpendicularly to the plantar surface of the selected hind paw, and then held in this position for approximately 8 seconds with enough force to cause a slight bend in the filament. Positive responses included an abrupt withdrawal of the hind paw from the stimulus, or flinching behavior immediately following removal of the stimulus.

Structure (SMILES)	% Effect (return of grip force to normalcy) ([1]; 30 mg/kg p.o., 60 minutes before data collection, positive control)	percent return of grip force to normalcy ([1]; 3 μmol/kg p.o., 60 minutes before data collection, MIA rats)	percent return of grip force to normalcy ([1]; 10 μmol/kg p.o., 60 minutes before data collection, MIA rats)	percent return of grip force to normalcy ([1]; 30 μmol/kg p.o., 60 minutes before data collection, MIA rats)	ED50 (return of grip force to normalcy) ([1]; p.o., 60 minutes before testing, MIA rats)	change in Paw Withdrawal Threshold versus vehicle [2]
O=C(O)Cc1ccccc1Nc1c(Cl)cccc1Cl [diclofenac, reference compound]	about 69%					
c1cc2cc(-c3ccc(O[C@H]4C[C@H]5CC[C@@H](C4)N5)cn3)ccc2[nH]1 [Compound A, 5-(5-((1R,3r,5S)-8-azabicyclo[3.2.1]octan-3-yloxy)pyridine-2-yl)-1H-indole]		approximately 39%	~60%	~73%	approximately 6 μmol/kg	statistically significant change

Source: patent US8940762B2, “Methods for treating pain” (AbbVie Inc., priority 2010, dated 2015)
